Experimental findings from US20210300940A1 (Merck Patent GmbH, priority 2018, published 2021) are described below.

The target of one assay is T1, TLR7 (Homo sapiens, UniProt Q9NYK1).
T1 construct: expressed in transfected cells; host or cells: HEK/293 cells carrying TLR7 and an NF-kB luciferase reporter
T1 sequence (Q9NYK1 27-1049): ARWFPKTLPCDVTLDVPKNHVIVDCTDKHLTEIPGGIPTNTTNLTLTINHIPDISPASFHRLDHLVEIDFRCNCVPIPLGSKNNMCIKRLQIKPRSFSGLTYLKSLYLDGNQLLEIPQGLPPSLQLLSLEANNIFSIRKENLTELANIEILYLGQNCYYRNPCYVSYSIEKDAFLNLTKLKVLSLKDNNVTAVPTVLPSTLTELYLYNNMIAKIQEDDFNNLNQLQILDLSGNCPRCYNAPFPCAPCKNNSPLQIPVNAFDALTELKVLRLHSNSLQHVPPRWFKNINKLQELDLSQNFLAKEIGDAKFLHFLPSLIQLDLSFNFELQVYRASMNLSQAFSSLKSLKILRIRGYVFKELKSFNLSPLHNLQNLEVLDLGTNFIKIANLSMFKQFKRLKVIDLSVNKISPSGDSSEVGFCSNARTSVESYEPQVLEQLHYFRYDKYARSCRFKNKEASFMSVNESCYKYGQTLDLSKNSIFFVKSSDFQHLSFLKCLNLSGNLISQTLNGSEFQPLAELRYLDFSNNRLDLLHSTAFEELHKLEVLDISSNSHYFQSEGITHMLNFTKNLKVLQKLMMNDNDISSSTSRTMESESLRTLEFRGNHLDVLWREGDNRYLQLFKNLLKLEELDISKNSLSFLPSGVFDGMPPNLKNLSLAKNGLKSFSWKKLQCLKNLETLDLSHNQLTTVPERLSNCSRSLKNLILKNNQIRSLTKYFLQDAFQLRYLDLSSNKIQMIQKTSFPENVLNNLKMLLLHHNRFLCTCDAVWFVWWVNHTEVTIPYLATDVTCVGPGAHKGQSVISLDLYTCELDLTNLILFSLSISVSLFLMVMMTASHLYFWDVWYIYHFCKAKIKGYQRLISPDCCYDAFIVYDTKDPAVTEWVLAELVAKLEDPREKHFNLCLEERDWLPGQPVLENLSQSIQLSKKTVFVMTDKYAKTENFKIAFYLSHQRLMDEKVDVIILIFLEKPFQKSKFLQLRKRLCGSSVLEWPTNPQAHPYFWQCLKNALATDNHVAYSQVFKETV
Nature of the assay: HEK/293 TLR7 Cell Assay. The settings on record: TLR7/NFKb HEK cells, R848 agonist 10 uM final concentration, Steady-Glo readout; read-out: TLR7 potency. In kind it is cell-based. In a few lines:
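TLR7/NF-κB reporter HEK293 cells, 5000/well, cultured 24 h, then preincubated 30 min with compound before R848 agonist (10 uM final). After 5 h stimulation, Steady-Glo luciferase luminescence read.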

The target of another assay is T2, TLR8 (Homo sapiens, UniProt Q9NR97).
T2 construct: expressed in transfected cells; host or cells: HEK/293 reporter cells (NF-kB luciferase)
T2 sequence (Q9NR97 27-1041): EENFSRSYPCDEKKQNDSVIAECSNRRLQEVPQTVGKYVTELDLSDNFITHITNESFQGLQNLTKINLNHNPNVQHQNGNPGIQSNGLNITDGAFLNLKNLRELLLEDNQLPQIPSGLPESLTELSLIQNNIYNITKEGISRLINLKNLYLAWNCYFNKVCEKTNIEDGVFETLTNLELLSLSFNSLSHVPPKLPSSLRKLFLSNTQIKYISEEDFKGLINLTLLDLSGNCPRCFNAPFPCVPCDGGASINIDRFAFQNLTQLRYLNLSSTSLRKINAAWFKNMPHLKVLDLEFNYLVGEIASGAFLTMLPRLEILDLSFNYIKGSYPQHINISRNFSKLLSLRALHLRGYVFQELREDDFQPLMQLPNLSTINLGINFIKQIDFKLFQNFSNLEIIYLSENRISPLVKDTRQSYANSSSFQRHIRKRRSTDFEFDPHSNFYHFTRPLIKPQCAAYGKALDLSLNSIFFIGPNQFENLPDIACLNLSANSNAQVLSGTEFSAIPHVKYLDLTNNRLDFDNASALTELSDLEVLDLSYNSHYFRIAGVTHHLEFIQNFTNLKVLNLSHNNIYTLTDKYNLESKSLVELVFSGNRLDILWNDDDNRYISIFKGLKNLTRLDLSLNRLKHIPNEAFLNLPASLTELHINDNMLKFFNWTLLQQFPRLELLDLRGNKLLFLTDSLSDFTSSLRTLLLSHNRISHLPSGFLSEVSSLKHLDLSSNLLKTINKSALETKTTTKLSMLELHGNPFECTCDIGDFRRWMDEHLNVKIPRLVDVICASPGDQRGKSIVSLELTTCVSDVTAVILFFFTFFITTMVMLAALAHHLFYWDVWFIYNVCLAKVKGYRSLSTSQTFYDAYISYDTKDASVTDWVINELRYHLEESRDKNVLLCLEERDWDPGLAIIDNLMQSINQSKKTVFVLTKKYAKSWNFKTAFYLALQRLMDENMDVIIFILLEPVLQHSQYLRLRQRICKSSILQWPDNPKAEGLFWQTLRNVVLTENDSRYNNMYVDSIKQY
Nature of the assay: HEK/293 TLR8 Cell Assay. The class given is cell-based. The settings on record: HEK cells, R848 agonist 30 uM final concentration, Steady-Glo readout; read-out: TLR8 potency.

Consider `CN1CCC(F)(CNC(=O)[C@@H]2CN(c3ccc(C#N)c4nccnc34)C[C@H](C(F)(F)F)O2)CC1` (single isomer, unassigned) [Example 360], for which the IC50 on TLR7 and at TLR8 was below 75 nM in each case.
For `C[C@H]1C[C@@H](OCCN2CCN(C)CC2)CN(c2ccc(C(F)(F)F)c3ncccc23)C1` (racemic) [Example 2, 5-[cis-3-methyl-5-[2-(4-methylpiperazin-1-yl)ethoxy]piperidin-1-yl]-8-(trifluoromethyl)quinoline], the IC50 at TLR7 and on TLR8 was below 75 nM throughout.
For `C[C@@H]1CN(c2ccc(C#N)c3nccnc23)C[C@H](CN2CCC(F)(C(=O)O)CC2)O1` [Example 228, 1-[(2S,6R)-4-(8-Cyano-quinoxalin-5-yl)-6-methyl-morpholin-2-ylmethyl]-4-fluoro-piperidine-4-carboxylic acid], the IC50 on TLR7 and at TLR8 was below 75 nM each time.
For `CCS(=O)(=O)NCCN[C@@H]1C[C@H](C)CN(c2ccc(C(F)(F)F)c3nccnc23)C1` [Example 24], the IC50 at TLR7 is 75 to 150 nM; on TLR8, below 75 nM.
Regarding `C[C@@H]1CN(c2ccc(C#N)c3nccnc23)C[C@H](C(=O)NC[C@@H](O)CN(C)C)O1` (single isomer, unassigned) [Example 262], the IC50 on TLR7 and at TLR8 was below 75 nM in each case.
On to `O=C(CC1(F)CCNCC1)N[C@@H]1C[C@H](C(F)(F)F)CN(c2ccc(C(F)(F)F)c3ncccc23)C1` [Example 117, 2-(4-fluoropiperidin-4-yl)-N-[(3R,5S)-5-(trifluoromethyl)-1-[8-(trifluoromethyl)quinolin-5-yl]piperidin-3-yl]acetamide], for which the IC50 on TLR7 and at TLR8 was below 75 nM throughout.
For “(2S)—N-[(3R,5S)-5-amino-1-(8-cyanoquinazolin-5-yl)piperidin-3-yl]-2-(4-methylpiperazin-1-yl)propanamide [Example 97]”, the IC50 on TLR7 was below 75 nM; on TLR8 it was above 150 nM.
In the case of `C[C@@H]1CN(c2ccc(C#N)c3ncncc23)C[C@H](C(=O)NC2CCN(C)C3(CCC3)C2)O1` (stereo partly drawn) [Example 347, (2R,6R)-4-(8-Cyano-quinazolin-5-yl)-6-methyl-morpholine-2-carboxylic acid (5-methyl-5-aza-spiro[3.5]non-8-yl)-amide], the IC50 on TLR7 and at TLR8 was below 75 nM throughout.
With `C[C@@H]1CN(c2ccc(C#N)c3nccnc23)C[C@H](C(=O)NCC(C)(C)O)O1` [Example 246, (2R,6R)-4-(8-Cyano-quinoxalin-5-yl)-6-methyl-morpholine-2-carboxylic acid (2-hydroxy-2-methyl-propyl)-amide], the IC50 at TLR7 and at TLR8 was below 75 nM each time.
On to `C[C@@H]1CN(c2cnc(C(F)(F)F)c3ncccc23)C[C@H](CNC[C@H]2CN(C)CCO2)O1` (single isomer, unassigned) [Example 385], for which the IC50 was above 150 nM on TLR7 and below 75 nM at TLR8.
With `C[C@H]1C[C@@H](NC(=O)CCN)CN(c2ccc(C(F)(F)F)c3ncccc23)C1` [Example 166, 3-Amino-N-[(3R,5S)-5-methyl-1-(8-trifluoromethyl-quinolin-5-yl)-piperidin-3-yl]-propionamide], the values for the IC50 on TLR7 and at TLR8 were 75 to 150 nM and below 75 nM, respectively.
As to `C[C@H]1C[C@@H](NCCN2CCOC2=O)CN(c2ccc(C(F)(F)F)c3nccnc23)C1` [Example 31, 3-{2-[(3R,5S)-5-Methyl-1-(8-trifluoromethyl-quinoxalin-5-yl)-piperidin-3-ylamino]-ethyl}-oxazolidin-2-one formic acid], the IC50 on TLR7 and at TLR8 was below 75 nM throughout.
Take `C[C@H]1C[C@@H](NCCC2CS(=O)(=O)C2)CN(c2ccc(C#N)c3nccnc23)C1` [Example 43, 8-{(3R,5S)-3-[2-(1,1-Dioxo-1lambda6-thietan-3-yl)-ethylamino]-5-methyl-piperidin-1-yl}-quinoxaline-5-carbonitrile]: the IC50 on TLR7 and on TLR8 was below 75 nM each time.
`Cc1ncc(N2C[C@@H](C)C[C@@H](NC(=O)CC3C4CC3CN(C)C4)C2)c2cccnc12` (stereo partly drawn) [Example 165, 2-(3-Methyl-3-aza-bicyclo[3.1.1]hept-6-yl)-N-[(3R,5S)-5-methyl-1-(8-methyl-naphthyridin-5-yl)-piperidin-3-yl]-acetamide]: the IC50 at TLR7 and at TLR8 was below 75 nM throughout.
As for `C[C@@H]1CN(c2ccc(C#N)c3nccnc23)C[C@H](C(=O)NCCC2CS(=O)(=O)C2)O1` [Example 259, (2R,6R)-4-(8-cyanoquinoxalin-5-yl)-N-[2-(1,1-dioxo-1λ^6-thietan-3-yl)ethyl]-6-methylmorpholine-2-carboxamide], the IC50 on TLR7 was below 75 nM; on TLR8, above 150 nM.
Take `C[C@H]1C[C@@H](NC(=O)[C@@H](N)CC(N)=O)CN(c2ccc(C(F)(F)F)c3ncccc23)C1` [Example 128, (2S)-2-amino-N-[(3R,5S)-5-methyl-1-[8-(trifluoromethyl)quinolin-5-yl]piperidin-3-yl]butanediamide]: the IC50 on TLR7 and at TLR8 was below 75 nM each time.
Take `C[C@@H]1CN(c2cnc(C#N)c3ncccc23)C[C@H](CNC(=O)[C@@]2(F)CCNC2)O1` (single isomer, unassigned) [Example 336]: the IC50 at TLR7 and on TLR8 was below 75 nM each time.
Take `C[C@@H]1CN(c2cnc(C#N)c3ncccc23)C[C@H](CN2CCN(CCO)CC2)O1` [Example 372, 5-{(2S,6R)-2-[4-(2-Hydroxy-ethyl)-piperazin-1-ylmethyl]-6-methyl-morpholin-4-yl}-[1,7]naphthyridine-8-carbonitrile]: the IC50 is 75 to 150 nM on TLR7 and below 75 nM on TLR8.
`C[C@H]1C[C@@H](NC(=O)CCN(C)C)CN(c2ccc(C(F)(F)F)c3ncccc23)C1` [Example 186, 3-Dimethylamino-N-[(3R,5S)-5-methyl-1-(8-trifluoromethyl-quinolin-5-yl)-piperidin-3-yl]-propionamide]: the IC50 at TLR7 and at TLR8 was below 75 nM in each case.
Take `C[C@@H]1CN(c2ccc(C#N)c3ncncc23)C[C@H](CN2CCN(C)CC2)O1` [Example 224, 5-[(2R,6S)-2-Methyl-6-(4-methyl-piperazin-1-ylmethyl)-morpholin-4-yl]-quinazoline-8-carbonitrile]: the IC50 at TLR7 is below 75 nM; on TLR8, above 150 nM.
Turning to `C[C@H]1C[C@@H](NC(=O)[C@@H](N)C(C)(C)O)CN(c2ccc(C#N)c3nccnc23)C1` [Example 173, (S)-2-Amino-N-[(3R,5S)-1-(8-cyano-quinoxalin-5-yl)-5-methyl-piperidin-3-yl]-3-hydroxy-3-methyl-butyramide], the IC50 at TLR7 and at TLR8 was below 75 nM each time.
